# Read-outs that look alike come from different tables or passages of the source.
# Experiments:
# [1] = test system: superoxide production in left carotid arteries; assay: Superoxide in left common carotid artery of apoE-deficient mice, DHE staining; type: in vivo
# Procedure: Representative photomicrographs of the […] sections in apoE-deficient mice were treated daily with water only (A) or DM 5 mg/kg/day (B), 10 mg/kg/day (C), 20 mg/kg/day (D) or 40 mg/kg/day (E) for 10 weeks. […] The results are representative of 4 independent experiments with 6-8 independently analyzed mice/group. (bar=50 μm)
# (§1) Having established the DM inhibitory effect on macrophage activation and NADPH oxidase, we next examined the functional consequences of which in vivo. […] Sections of left carotid arteries from the mice were stained with DHE and then imaged with a laser scanning confocal microscope.
# microglia = conditions: cited from earlier work
# [2] = test system: superoxide in the thoracic aorta; assay: Superoxide production in thoracic aorta of apoE-deficient mice, lucigenin chemiluminescence; type: in vivo; conditions: 10 weeks, controls 534,000±145,000
# Procedure: (§2) ApoE-deficient mice were treated daily with DM 5 mg/kg/day (n=9), 10 mg/kg/day (n=9), 20 mg/kg/day (n=9) or 40 mg/kg/day (n=11) for 10 weeks. Production of superoxide in PMN (1×10^6 cells/mL PBS) (A) was measured by lucigenin-enhanced chemiluminescence. The results are expressed as mean±SD. (P<0.05, control versus 10 mg/kg/day; P<0.001, control versus 20 mg/kg/day and 40 mg/kg/day). Production of superoxide in the thoracic aorta (B) was also measured by lucigenin-enhanced chemiluminescence. The results are expressed as mean±SD. (P<0.05, control versus 10 mg/kg/day and 40 mg/kg/day; P<0.01, control versus 20 mg/kg/day).
# as §1
# [3] = test system: superoxide production in THP-1 cell culture; assay: LPS-induced macrophage superoxide production, lucigenin-enhanced chemiluminescence; type: cell-based, human
# Procedure: (§3) THP-1 cells were grown in the RPMI-1640 medium containing 10% fetal bovine serum at 37° C. in 5% CO2. The cells were differentiated to macrophages after treatment of the culture with 100 nM PMA for 24 hours. The cell suspension (5×10^5) was added in 0.5 mL into each well of the tissue culture plates. […] LPS was dissolved in sterile water and stored at −70° C. in aliquots. LDL was isolated from human endotoxin-free heparin plasma and was oxidized using CuSO4. In brief, LDL (1 mL, 1 mg/mL) was dialyzed in 500 mL phosphate-buffered saline (PBS, pH 7.4) overnight. Copper sulfate was added to a final concentration of 5 μM, and the LDL was allowed to oxidize at room temperature for 24 hours.
# (§4) The supernatants were harvested and the TNF-α, IL-6, and MCP-1 levels were determined by ELISA. Superoxide production in the THP-1 cell culture was measured by lucigenin-enhanced chemiluminescence as described previously (Khadour F H, Panas D, Ferdinandy P, et al. Am J Physiol Heart Circ Physiol, 28:H1108-15 2002). LPS-treated THP-1 cells were treated with PBS containing 1.25 mM lucigenin, and counts were obtained for a 10-minute period in a luminometer (Berthold Technologies, Germany) as relative light units (RLU) emitted. Background counts determined in cell-free preparations were subtracted. Superoxide levels were reported as RLU per 10 minutes and were normalized to the volume (mL) of cell suspension added (i.e., RUL/10 min/mL).
# We used lucigenin-enhanced chemiluminescence to assess the DM effect on macrophage superoxide production after stimulation.
# [4] = test system: IL-6 release from THP-1 cells after LPS stimulation; assay: LPS-induced IL-6 release in THP-1 macrophage culture (ELISA); type: cell-based, human
# Procedure: THP-1 cells were grown in the RPMI-1640 medium containing 10% fetal bovine serum at 37° C. in 5% CO2. The cells were differentiated to macrophages after treatment of the culture with 100 nM PMA for 24 hours. The cell suspension (5×10^5) was added in 0.5 mL into each well of the tissue culture plates. For each experiment, naloxone was prepared immediately before use. LPS was dissolved in sterile water and stored at −70° C. in aliquots. LDL was isolated from human endotoxin-free heparin plasma and was oxidized using CuSO4. In brief, LDL (1 mL, 1 mg/mL) was dialyzed in 500 mL phosphate-buffered saline (PBS, pH 7.4) overnight. Copper sulfate was added to a final concentration of 5 μM, and the LDL was allowed to oxidize at room temperature for 24 hours.
# as §4
# apoE-deficient mice = type: in vivo
# Procedure: ApoE-deficient mice were fed with a high cholesterol diet containing 21% fat and 0.15% cholesterol (PMI LabDiet 40097, Richmond, Ind., USA) from 8-17 weeks of age. […] After completing the treatment, blood samples were collected by direct heart puncture when sacrificing the animals. The serum levels of total cholesterol, LDL, HDL, and triglyceride were measured by enzymatic methods using an automatic analyzer (Model 747, Hitachi Ltd. Co., Tokyo, Japan). The aorta was dissected from the aortic valve to the iliac bifurcation. To identify lipid-rich atherosclerotic lesions, the aorta was rinsed in 50% isopropanol for 2 minutes, incubated in 0.67% Oil-Red-O for 15 minutes, and washed by 10% isopropanol for 2 minutes. Using a dissection microscope, the area of each atherosclerotic lesion was measured with Image Pro Plus software (Version 3.0.1; Media Cybernetics, Inc, Silver Spring, Md., USA) and expressed as percentage of atherosclerotic area/total area of the aorta.
# [5] = test system: superoxide production in PMN; assay: Superoxide production in PMN of apoE-deficient mice, lucigenin chemiluminescence; type: in vivo; conditions: controls 519,000±115,000
# Procedure: as §2, §1
# [6] = test system: MCP-1 release from THP-1 cells after oxLDL stimulation; assay: oxLDL-induced MCP-1 release in THP-1 macrophage culture (ELISA); type: cell-based, human; conditions: 0.01 μM pretreatment, oxLDL alone 2.23±0.34
# Procedure: as §3
# as §4, with “Superoxide levels were reported as RLU per 10 minutes and were normalized to the volume (mL) of cell suspension added (i.e., RUL/10 min/mL).” left out
# [7] = test system: MCP-1 release from THP-1 cells after LPS stimulation; assay: LPS-induced MCP-1 release in THP-1 macrophage culture (ELISA); type: cell-based, human; conditions: 1 μM pretreatment, LPS alone 9.22±1.17
# Procedure: as §3
# as §4, with “Superoxide levels were reported as RLU per 10 minutes and were normalized to the volume (mL) of cell suspension added (i.e., RUL/10 min/mL).” left out
smiles,measurement,setting,value
"COc1ccc2c(c1)[C@]13CCCC[C@@H]1[C@H](C2)N(C)CC3 [DM, (+)-3-methoxy-17-methyl-9α,13α,14α-morphinan]","DHE staining (superoxide), FIG. 14","[1]; DM 5, 10, 20 or 40 mg/kg/day for 10 weeks vs water only",staining was much more reduced
same,DHE fluorescence intensity in sections of left carotid arteries (superoxide),"[1]; DM 10, 20, and 40 mg/kg/day for 10 weeks",significantly reduced the increase of fluorescence intensity
same,microglia activation,"microglia; 1 μM DM, Liu et al. 2003",could inhibit microglia activation
same,superoxide in the thoracic aorta,"[2]; 5 mg/kg, P=NS","424,000±141,000 RLU/15 min"
same,superoxide in the thoracic aorta,[2]; 10 mg/kg,"377,000±97,000 RLU/15 min"
same,superoxide in the thoracic aorta,[2]; 20 mg/kg,"341,000±94,000 RLU/15 min"
same,superoxide in the thoracic aorta,[2]; 40 mg/kg,"379,000±84,000 RLU/15 min"
same,macrophage superoxide production,"[3]; DM 0.01 μM pretreatment, LPS alone 612,000±105,000","341,000±82,000 RLU/15 min/mL"
same,macrophage superoxide production,"[3]; DM 0.1 μM pretreatment, LPS alone 612,000±105,000","303,000±109,000 RLU/15 min/mL"
same,macrophage superoxide production,"[3]; DM 1 μM pretreatment, LPS alone 612,000±105,000","257,000±45,000 RLU/15 min/mL"
same,IL-6 in medium,"[4]; DM 0.01 μM pretreatment, LPS alone 9.53±1.95",6.22 ± 2.46 ng/mL
same,IL-6 in medium,"[4]; DM 0.1 μM pretreatment, LPS alone 9.53±1.95",6.21 ± 1.89 ng/mL
same,IL-6 in medium,"[4]; DM 1 μM pretreatment, LPS alone 9.53±1.95",5.36 ± 1.76 ng/mL
same,aortic atherosclerotic lesion area,"apoE-deficient mice; DM 5 mg/kg/day 10 weeks, P=NS, controls 16.9±4.3",14.1±5.7%
same,aortic atherosclerotic lesion area,"apoE-deficient mice; DM 10 mg/kg/day 10 weeks, controls 16.9±4.3",8.2±3.8%
same,aortic atherosclerotic lesion area,"apoE-deficient mice; DM 20 mg/kg/day 10 weeks, controls 16.9±4.3",5.0±2.0%
same,aortic atherosclerotic lesion area,"apoE-deficient mice; DM 40 mg/kg/day 10 weeks, controls 16.9±4.3",4.6±3.6%
same,PMN production of superoxide,"[5]; 5 mg/kg/day 10 weeks, P=NS","460,000±138,000 RLU/15 min"
same,PMN production of superoxide,[5]; 10 mg/kg/day 10 weeks,"390,000±63,000 RLU/15 min"
same,PMN production of superoxide,[5]; 20 mg/kg/day 10 weeks,"328,000±82,000 RLU/15 min"
same,PMN production of superoxide,[5]; 40 mg/kg/day 10 weeks,"328,000±82,000 RLU/15 min"
"C=CCN1CC[C@]23c4c5ccc(O)c4O[C@H]2C(=O)CC[C@@]3(O)[C@H]1C5 [Naloxone, 17-allyl-4,5α-epoxy-3,14-dihydroxymorphinan-6-one]",neuron protection / microglia activation,"microglia; 1 μM naloxone, Liu et al. 2000",could protect neurons through inhibition of microglia activation
same,macrophage superoxide production,"[3]; 0.1 μM pretreatment, LPS alone 817,000±90,000","364,000±202,000 RLU/10 min/mL"
same,macrophage superoxide production,"[3]; 1 μM pretreatment, LPS alone 817,000±90,000","362,000±24,000 RLU/10 min/mL"
same,IL-6 in medium,"[4]; 0.01 μM pretreatment, LPS alone 5.02±0.14",3.74 ± 0.31 ng/mL
same,IL-6 in medium,"[4]; 0.1 μM pretreatment, LPS alone 5.02±0.14",3.28 ± 0.14 ng/mL
same,IL-6 in medium,"[4]; 1 μM pretreatment, LPS alone 5.02±0.14",3.44 ± 0.48 ng/mL
same,aortic atherosclerotic lesion area,"apoE-deficient mice; 10 mg/kg/day i.p. 10 weeks, PBS 12.9±6.1",5.2±3.8%
same,aortic atherosclerotic lesion area,"apoE-deficient mice; 20 mg/kg/day i.p. 10 weeks, PBS 12.9±6.1",3.4±1.4%
same,aortic atherosclerotic lesion area,"apoE-deficient mice; 25 mg/kg/day i.p. 10 weeks, PBS 12.9±6.1",1.8±1.2%
same,MCP-1 in medium,[6],0.95 ± 0.28 ng/mL
same,MCP-1 in medium,[7],6.16 ± 0.16 ng/mL
